As usually defined, the IC50 is the concentration that inhibits the measured activity by half. A high value points to lower potency.

These results are taken from ChEMBL document CHEMBL5727777, “Piperidin-4-yl azetidine derivatives as JAK1 inhibitors” (2020).

The target of the test is Tyrosine-protein kinase JAK1 (Homo sapiens, UniProt P23458). In words: In vitro JAK Kinase Assay: The catalytic domains of human JAK1 (a.a. 837-1142), Jak2 (a.a. 828-1132) and Jak3 (a.a. 781-1124) with an N-terminal His tag were expressed using baculovirus in insect cells and purified. The catalytic activity of JAK1, JAK2 or JAK3 was assayed by measuring the phosphorylation of a biotinylated peptide. The phosphorylated peptide was detected by homogenous time resolved fluorescence (HTRF). […] Reactions were carried out at room temperature for 1 hr and then stopped with 20 μL 45 mM EDTA, 300 nM SA-APC, 6 nM Eu-Py20 in assay buffer (Perkin Elmer, Boston, Mass.). Binding to the Europium labeled antibody took place for 40 minutes and HTRF signal was measured on a Fusion plate reader (Perkin Elmer, Boston, Mass.). For orientation: Time-resolved FRET reads energy transfer from a long-lived donor to a nearby acceptor.
Chain of Tyrosine-protein kinase JAK1 (P23458 whole entry, the tested form may be a part): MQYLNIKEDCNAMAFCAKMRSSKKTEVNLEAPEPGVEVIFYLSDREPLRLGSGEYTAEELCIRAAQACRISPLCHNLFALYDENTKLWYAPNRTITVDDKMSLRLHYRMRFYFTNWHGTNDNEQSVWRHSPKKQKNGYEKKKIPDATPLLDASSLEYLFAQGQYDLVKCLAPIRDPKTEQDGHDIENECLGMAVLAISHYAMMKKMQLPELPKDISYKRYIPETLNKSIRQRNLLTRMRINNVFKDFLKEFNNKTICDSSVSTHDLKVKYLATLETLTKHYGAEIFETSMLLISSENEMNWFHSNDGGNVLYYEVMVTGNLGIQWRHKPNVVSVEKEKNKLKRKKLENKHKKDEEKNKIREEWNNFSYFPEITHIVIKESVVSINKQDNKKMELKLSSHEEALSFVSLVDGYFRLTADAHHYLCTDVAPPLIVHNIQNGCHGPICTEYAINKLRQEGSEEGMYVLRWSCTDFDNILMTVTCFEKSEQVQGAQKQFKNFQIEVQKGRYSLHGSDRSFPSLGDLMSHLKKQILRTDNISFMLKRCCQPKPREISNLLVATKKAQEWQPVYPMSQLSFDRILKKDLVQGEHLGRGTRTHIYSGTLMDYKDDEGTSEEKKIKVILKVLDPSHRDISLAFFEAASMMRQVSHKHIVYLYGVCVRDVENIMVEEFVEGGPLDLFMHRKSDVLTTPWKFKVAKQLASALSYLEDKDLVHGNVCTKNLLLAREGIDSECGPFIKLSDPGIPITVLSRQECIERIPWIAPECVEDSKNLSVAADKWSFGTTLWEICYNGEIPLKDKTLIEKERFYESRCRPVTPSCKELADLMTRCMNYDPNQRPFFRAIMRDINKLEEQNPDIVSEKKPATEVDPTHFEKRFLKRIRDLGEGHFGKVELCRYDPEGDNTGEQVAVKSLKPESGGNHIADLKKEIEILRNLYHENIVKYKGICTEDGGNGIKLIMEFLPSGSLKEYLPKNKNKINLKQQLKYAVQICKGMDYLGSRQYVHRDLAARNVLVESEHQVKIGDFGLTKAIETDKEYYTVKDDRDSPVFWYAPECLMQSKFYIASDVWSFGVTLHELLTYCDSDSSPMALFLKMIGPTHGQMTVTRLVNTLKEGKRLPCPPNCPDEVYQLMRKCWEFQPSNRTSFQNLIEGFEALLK

As to `N#CCC1(n2cc(-c3ncnc4[nH]ccc34)cn2)CN(C2CCN(C(=O)OCC3CCCCC3)CC2)C1`, the IC50 is under 5 nM.
